The text below walks through data of patent US20230002357A1, “7-PYRIMIDINE-2-YL-OXY-INDAZOLE DERIVATIVES AND THEIR USE AS HERBICIDES” (SYNGENTA CROP PROTECTION AG, priority 2019, published 2023).

What all share (format): in vivo
Holding throughout (conditions): 250 g/ha, evaluated after 13 days

Assay [1] deals with Amaranthus retoflexus (AMARE). The assay can be described thus: Post-emergence Test, glasshouse, AMARE. As for the experimental part:
(§1) Seeds of a variety of test species are sown in standard soil in pots Amaranthus retoflexus (AMARE), Echinochloa crus-galli (ECHCG), Setaria faberi (SETFA)). After cultivation for one day (pre-emergence) or after 8 days cultivation (post-emergence) under controlled conditions in a glasshouse (at 24/16° C., day/night; 14 hours light; 65% humidity), the plants are sprayed with an aqueous spray solution derived from the formulation of the technical active ingredient in acetone/water (50:50) solution containing 0.5% Tween™ 20 (polyoxyethelyene sorbitan monolaurate, CAS RN 9005-64-5). Compounds are applied at 250 g/ha unless otherwise stated. The test plants are then grown in a glasshouse under controlled conditions in a glasshouse (at 24/16° C., day/night; 14 hours light; 65% humidity) and watered twice daily. After 13 days for pre- and post-emergence, the test is evaluated for the percentage damage caused to the plant. The biological activities are shown in the following table on a five-point scale (5=81-100%; 4=61-80%; 3=41-60%; 2=21-40%; 1=0-20%).

Assay [2] has as its system ABUTH. The assay can be described thus: Post-emergence Test, glasshouse, ABUTH. The procedure: as §1
In assay [3] the test system is Setaria faberi (SETFA). The assay can be described thus: Post-emergence Test, glasshouse, SETFA. As for the experimental part:
as §1

Assay [4] concerns Echinochloa crus-galli (ECHCG). The assay can be described thus: Post-emergence Test, glasshouse, ECHCG. As for the experimental part:
as §1

Assay [5] relates to IPOHE. Briefly: Post-emergence Test, glasshouse, IPOHE. As for the experimental part:
as §1

The subject of assay [6] is Amaranthus retoflexus (AMARE). Briefly: Pre-emergence Test, glasshouse, AMARE. As for the experimental part: as §1
Assay [7] relates to ABUTH. The assay can be described thus: Pre-emergence Test, glasshouse, ABUTH. As for the experimental part:
as §1

Assay [8] relates to Setaria faberi (SETFA). Briefly: Pre-emergence Test, glasshouse, SETFA. As for the experimental part:
as §1

The test system of assay [9] is Echinochloa crus-galli (ECHCG). Briefly: Pre-emergence Test, glasshouse, ECHCG. As for the experimental part:
as §1

Assay [10] concerns IPOHE. Briefly: Pre-emergence Test, glasshouse, IPOHE. The procedure: as §1

Turning to `Fc1cc(Cl)cnc1Oc1cccc2ccn(CCCC(F)(F)F)c12` [Compound 1.004], the “percentage damage caused to the plant, five-point scale, AMARE” value (shortened to “percentage damage caused … AMARE”) in assay [1] was 3 (3=41-60%); in [6], 1 (1=0-20%). Further, the “percentage damage caused to the plant, five-point scale, ABUTH” value (“percentage damage caused … ABUTH” for short) in the assay with ABUTH [2] and with ABUTH [7] was 1 (1=0-20%) in each case. In addition, the “percentage damage caused to the plant, five-point scale, SETFA” value (“percentage damage caused … SETFA” below) was 1 (1=0-20%) in the assay with Setaria faberi (SETFA) [3] and 2 (2=21-40%) with Setaria faberi (SETFA) [8]. For the same molecule, the “percentage damage caused to the plant, five-point scale, ECHCG” value (shortened to “percentage damage caused … ECHCG”) in assay [4] and in [9] was 1 (1=0-20%) throughout. The “percentage damage caused to the plant, five-point scale, IPOHE” value (“percentage damage caused … IPOHE” for short) is given as 2 (2=21-40%) with IPOHE [5] and 1 (1=0-20%) with IPOHE [10].

On to `FC(F)(F)CCCn1nc(Cl)c2cccc(Oc3ncc(Cl)cn3)c21` [Compound 1.005, 3-chloro-7-(5-chloropyrimidin-2-yl)oxy-1-(4,4,4-trifluorobutyl)indazole], for which the “percentage damage caused … AMARE” value in assay [1] and in [6] was 5 (5=81-100%) each time. For the same molecule, the “percentage damage caused … ABUTH” value in the assay on ABUTH [2] is 5 (5=81-100%); in the assay on ABUTH [7] it was 3 (3=41-60%). Besides, the “percentage damage caused … SETFA” value with Setaria faberi (SETFA) [3] and with Setaria faberi (SETFA) [8] was 5 (5=81-100%) throughout. Further, the “percentage damage caused … ECHCG” value in assay [4] and in [9] was 5 (5=81-100%) throughout. For the same molecule, the “percentage damage caused … IPOHE” value is on record as 3 (3=41-60%) with IPOHE [5] and 1 (1=0-20%) in the assay with IPOHE [10].

In the case of `FC(F)(F)CCCn1nc(Br)c2cccc(Oc3ncc(Cl)cn3)c21` [Compound 1.006, 3-bromo-7-(5-chloropyrimidin-2-yl)oxy-1-(4,4,4-trifluorobutyl)indazole], the “percentage damage caused … AMARE” value in assay [1] and in [6] was 5 (5=81-100%) throughout. The “percentage damage caused … ABUTH” value in the assay with ABUTH [2] is 5 (5=81-100%); with ABUTH [7] it was 2 (2=21-40%). For the same molecule, the “percentage damage caused … SETFA” value in the assay on Setaria faberi (SETFA) [3] is given as 4 (4=61-80%); in the assay with Setaria faberi (SETFA) [8], 5 (5=81-100%). Besides, the “percentage damage caused … ECHCG” value in assay [4] and in assay [9] was 5 (5=81-100%) throughout. Also, the “percentage damage caused … IPOHE” value in the assay on IPOHE [5] is on record as 2 (2=21-40%); with IPOHE [10], 1 (1=0-20%).

Turning to `N#Cc1nn(CCCC(F)(F)F)c2c(Oc3ncc(Cl)cn3)cccc12` [Compound 1.007, 7-(5-chloropyrimidin-2-yl)oxy-1-(4,4,4-trifluorobutyl)indazole-3-carbonitrile], the “percentage damage caused … AMARE” value in assay [1] and in assay [6] was 5 (5=81-100%) throughout. The “percentage damage caused … ABUTH” value with ABUTH [2] was 5 (5=81-100%); with ABUTH [7] it was 3 (3=41-60%). In addition, the “percentage damage caused … SETFA” value in the assay on Setaria faberi (SETFA) [3] and in the assay on Setaria faberi (SETFA) [8] was 5 (5=81-100%) throughout. Also, the “percentage damage caused … ECHCG” value in assay [4] and in [9] was 5 (5=81-100%) throughout. The “percentage damage caused … IPOHE” value is 4 (4=61-80%) in the assay on IPOHE [5] and 2 (2=21-40%) with IPOHE [10].

For `N#Cc1cc(Cl)cnc1Oc1cccc2c(Cl)nn(CCCC(F)(F)F)c12` [Compound 1.008], the “percentage damage caused … AMARE” value was 5 (5=81-100%) in assay [1] and 4 (4=61-80%) in assay [6]. For the same molecule, the “percentage damage caused … ABUTH” value with ABUTH [2] is 4 (4=61-80%); in the assay on ABUTH [7], 2 (2=21-40%). Besides, the “percentage damage caused … SETFA” value with Setaria faberi (SETFA) [3] and in the assay with Setaria faberi (SETFA) [8] was 4 (4=61-80%) throughout. Moreover, the “percentage damage caused … ECHCG” value in [4] and in [9] was 4 (4=61-80%) in each case. In addition, the “percentage damage caused … IPOHE” value is 2 (2=21-40%) with IPOHE [5] and 1 (1=0-20%) in the assay with IPOHE [10].

Turning to `FC(F)(F)CCCn1nc(Cl)c2cc(Br)cc(Oc3ncc(Cl)cn3)c21` [Compound 1.010, 5-bromo-3-chloro-7-(5-chloropyrimidin-2-yl)oxy-1-(4,4,4-trifluorobutyl)indazole], the “percentage damage caused … AMARE” value in [1] and in [6] was 4 (4=61-80%) throughout. Besides, the “percentage damage caused … ABUTH” value in the assay with ABUTH [2] and with ABUTH [7] was 1 (1=0-20%) in each case. The “percentage damage caused … SETFA” value in the assay with Setaria faberi (SETFA) [3] and in the assay on Setaria faberi (SETFA) [8] was 2 (2=21-40%) throughout. Further, the “percentage damage caused … ECHCG” value in assay [4] and in assay [9] was 2 (2=21-40%) in each case. Also, the “percentage damage caused … IPOHE” value in the assay on IPOHE [5] and in the assay with IPOHE [10] was 1 (1=0-20%) each time.

As for `FC(F)(F)CCCn1ncc2cc(Br)cc(Oc3ncc(Cl)cn3)c21` [Compound 1.011, 5-bromo-7-(5-chloropyrimidin-2-yl)oxy-1-(4,4,4-trifluorobutyl)indazole], the figures for the “percentage damage caused … AMARE” value in assay [1] and in assay [6] were 3 (3=41-60%) and 1 (1=0-20%), respectively. Also, the “percentage damage caused … ABUTH” value in the assay on ABUTH [2] and in the assay on ABUTH [7] was 1 (1=0-20%) in each case. The “percentage damage caused … SETFA” value in the assay with Setaria faberi (SETFA) [3] and in the assay on Setaria faberi (SETFA) [8] was 1 (1=0-20%) each time. Moreover, the “percentage damage caused … ECHCG” value in [4] and in assay [9] was 1 (1=0-20%) each time. Also, the “percentage damage caused … IPOHE” value in the assay on IPOHE [5] and with IPOHE [10] was 1 (1=0-20%) each time.

Take `COc1cc(Oc2cccc3cnn(CCCC(F)(F)F)c23)ncn1` [Compound 1.012]: the “percentage damage caused … AMARE” value in assay [1] is 1 (1=0-20%); in assay [6], 2 (2=21-40%). The “percentage damage caused … ABUTH” value with ABUTH [2] and with ABUTH [7] was 1 (1=0-20%) each time. Further, the “percentage damage caused … SETFA” value with Setaria faberi (SETFA) [3] and with Setaria faberi (SETFA) [8] was 1 (1=0-20%) throughout. Besides, the “percentage damage caused … ECHCG” value in [4] and in assay [9] was 1 (1=0-20%) in each case. For the same molecule, the “percentage damage caused … IPOHE” value with IPOHE [5] and in the assay with IPOHE [10] was 1 (1=0-20%) in each case.

In the case of `FC(F)(F)CCCn1ncc2c(Cl)ccc(Oc3ncc(Cl)cn3)c21` [Compound 1.013, 4-chloro-7-(5-chloropyrimidin-2-yl)oxy-1-(4,4,4-trifluorobutyl)indazole], the “percentage damage caused … AMARE” value in assay [1] and in [6] was 5 (5=81-100%) throughout. The “percentage damage caused … ABUTH” value is given as 5 (5=81-100%) with ABUTH [2] and 2 (2=21-40%) in the assay on ABUTH [7]. Besides, the “percentage damage caused … SETFA” value in the assay on Setaria faberi (SETFA) [3] and in the assay on Setaria faberi (SETFA) [8] was 5 (5=81-100%) throughout. Further, the “percentage damage caused … ECHCG” value in assay [4] and in assay [9] was 5 (5=81-100%) each time. Also, the “percentage damage caused … IPOHE” value in the assay on IPOHE [5] is 2 (2=21-40%); in the assay with IPOHE [10], 1 (1=0-20%).

With `N#Cc1cc(Cl)cnc1Oc1cccc2cnn(CCCC(F)(F)F)c12` [Compound 1.014], the “percentage damage caused … AMARE” value in assay [1] and in assay [6] was 4 (4=61-80%) in each case. Moreover, the “percentage damage caused … ABUTH” value in the assay with ABUTH [2] is 4 (4=61-80%); with ABUTH [7] it was 1 (1=0-20%). Further, the “percentage damage caused … SETFA” value is 3 (3=41-60%) in the assay with Setaria faberi (SETFA) [3] and 4 (4=61-80%) in the assay on Setaria faberi (SETFA) [8]. In addition, the “percentage damage caused … ECHCG” value in assay [4] was 2 (2=21-40%); in assay [9], 4 (4=61-80%). Besides, the “percentage damage caused … IPOHE” value with IPOHE [5] is 2 (2=21-40%); in the assay on IPOHE [10], 1 (1=0-20%).
